Laboratory results as given in publication PMC6801739, “Antitumor Activity of a Novel Tyrosine Kinase Inhibitor AIU2001 Due to Abrogation of the DNA Damage Repair in Non-Small Cell Lung Cancer Cells” (International Journal of Molecular Sciences, 2019).

Key:
ZAP-70 = target: T1, ZAP-70 (Homo sapiens, UniProt P43403); assay: Kinase profiling at 10 μM (Eurofins); format: biochemical; details: read-out: Inhibitory activity
T1 construct: purchased Eurofins Pharma Discovery (KinaseProfiler); IC50 values by Reaction Biology Corp

SRC (1-530) = target: T2, SRC (1-530) (Homo sapiens, UniProt P12931); assay: Kinase profiling at 10 μM (Eurofins); format: biochemical; details: read-out: Inhibitory activity
T2 construct: purchased Eurofins Pharma Discovery (KinaseProfiler); IC50 values by Reaction Biology Corp

TGFBR1 = target: T3, TGFBR1 (Homo sapiens, UniProt P36897); assay: Kinase profiling at 10 μM (Eurofins); format: biochemical; details: read-out: Inhibitory activity
T3 construct: purchased Eurofins Pharma Discovery (KinaseProfiler); IC50 values by Reaction Biology Corp
T3 sequence (P36897 34-503): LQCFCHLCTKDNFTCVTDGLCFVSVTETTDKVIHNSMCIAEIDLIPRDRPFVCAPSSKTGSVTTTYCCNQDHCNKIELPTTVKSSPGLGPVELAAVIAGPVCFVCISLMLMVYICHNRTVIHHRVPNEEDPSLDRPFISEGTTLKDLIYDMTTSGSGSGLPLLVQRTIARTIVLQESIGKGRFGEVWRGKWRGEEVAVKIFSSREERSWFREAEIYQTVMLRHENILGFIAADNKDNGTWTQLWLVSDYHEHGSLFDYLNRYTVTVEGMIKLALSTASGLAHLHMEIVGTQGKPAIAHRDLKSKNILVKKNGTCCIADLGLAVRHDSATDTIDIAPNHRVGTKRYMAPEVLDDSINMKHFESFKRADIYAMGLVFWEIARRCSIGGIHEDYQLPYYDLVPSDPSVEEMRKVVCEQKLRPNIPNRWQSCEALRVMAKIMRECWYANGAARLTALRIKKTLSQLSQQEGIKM

H1299 cells [1] = assay: Clonogenic survival assay with γ-radiation; format: cell-based, human
Method: (§1) Cells were seeded on 60-mm culture dishes at various densities and then treated with DMSO or 2 μM AIU2001. After 2 h, the cells were treated with the indicated doses of ^137Cs γ-radiation. After 10 days, the colonies were fixed and stained with 1.5% methylene blue (Sigma Aldrich) in methanol solution. Colonies containing > 50 cells were counted. The dose enhancement ratio (DER) was calculated as the dose (Gy) of radiation that yielded a surviving fraction of 0.1 for DMSO-treated cells divided by that dose for AIU2001-treated cells. The experiment was performed in triplicate.

A549 cells = assay: Clonogenic survival assay with γ-radiation; format: cell-based, human
Method: as §1

CCD18-Lu cells = assay: MTT cell viability assay; format: cell-based, human; details: CCD18-Lu lung fibroblast cells, five days
Method: (§2) Cell viability was assessed using the MTT colorimetric assay. Cells (1 × 10^3 cells/well) were seeded into 96-well plates and treated with the various concentrations of each compound or combination of two compounds. After five days of treatment, 10 μL MTT (0.5 mg/mL) was added, and further incubated for 3 h. After removal of the supernatant, the resultant pellet was dissolved in DMSO. The absorbance of the resultant formazan was measured at 540 nm using a plate reader (Multiskan EX; ThermoLabsystems, Waltham, MA, USA).

H460 cells = assay: MTT cell viability assay; format: cell-based, human; details: five days
Method: as §2

BEAS2B cells = assay: MTT cell viability assay; format: cell-based, human; details: BEAS2B normal bronchial epithelial cells, five days
Method: as §2

A549 xenografts = assay: A549 tumor xenograft mouse model; format: in vivo, BALB/c nu/nu mice; details: 20 mg/kg i.p. once per two or three days, five times
Method: We next determined whether the antitumor effect associated with in vitro AIU2001 treatment could be translated into an in vivo xenograft mouse model. Mice were subcutaneously (s.c.) implanted with A549 cells in the right hind leg. When the tumors were palpable (average […]: 150 mm^3; 14days post-implantation), mice were intraperitoneally (i.p.) administered 20 mg/kg AIU2001 or DMSO once per two or three days for five times in total. […] At necropsy, the average tumor weight of mice treated with AIU2001 or DMSO was 1.2 g or 2.8 g, respectively (Figure 2B,C).
Figure 2 AIU2001 inhibited tumor growth of A549 xenografts in nude mice. (A) A549 cells were s.c. injected into the thigh of the right hind leg of BALB/c nu/nu mice (n = 4/group). Two weeks after tumor cell injection, AIU2001 (20 mg/kg) or DMSO was administered (i.p.) once per two or three days for five times in total. The longest (L) and shortest (W) tumor axes were measured, and tumor volume (mm^3) was calculated as L × W^2/2. The data shown represent the average tumor volume (* p < 0.05). (B) The weight of the resected tumors was measured at the end of the experiment (*** p < 0.001). (C) Image of resected tumors from mice. (D) The body weights of A549 tumor xenograft mice were determined twice weekly during the experiments.
A549 human lung cancer cell xenografts were initially established by s.c. implanting 1 × 10^6 cultured cells into the thigh of the right hind leg of six week old mice. When tumor volumes had reached approximately 150 mm^3, AIU2001 ([…]) was administered i.p. once per two or three days for five times in total. All animal experiments were reviewed and approved by the Institutional Animal Care & Use Committee of Korea Institute of Radiological and Medical Sciences (kirams2018-0063, 6 December 2018).
Two axes of the tumor (L, longest axis; W, shortest axis) were measured twice per week after irradiation using Vernier calipers. Tumor volume was calculated as (L × W^2)/2 (mm^3).

TAK1 = target: T4, TAK1 (Homo sapiens, UniProt O43318); assay: Kinase profiling at 10 μM (Eurofins); format: biochemical; details: read-out: Inhibitory activity
T4 construct: purchased Eurofins Pharma Discovery (KinaseProfiler); IC50 values by Reaction Biology Corp
T4 sequence (O43318 1-303 limits assumed): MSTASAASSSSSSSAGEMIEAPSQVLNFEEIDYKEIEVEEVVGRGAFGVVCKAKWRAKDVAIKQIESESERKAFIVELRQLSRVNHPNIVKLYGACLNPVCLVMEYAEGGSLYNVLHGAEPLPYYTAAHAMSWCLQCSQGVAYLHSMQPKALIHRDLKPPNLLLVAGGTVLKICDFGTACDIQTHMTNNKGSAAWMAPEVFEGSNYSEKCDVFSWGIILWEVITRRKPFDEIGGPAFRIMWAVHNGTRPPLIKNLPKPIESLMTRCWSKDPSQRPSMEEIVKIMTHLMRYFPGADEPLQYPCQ

p70S6K = target: T5, p70S6K (Homo sapiens, UniProt P23443); assay: Kinase profiling at 10 μM (Eurofins); format: biochemical; details: read-out: Inhibitory activity
T5 construct: purchased Eurofins Pharma Discovery (KinaseProfiler); IC50 values by Reaction Biology Corp
T5 sequence (P23443 whole entry): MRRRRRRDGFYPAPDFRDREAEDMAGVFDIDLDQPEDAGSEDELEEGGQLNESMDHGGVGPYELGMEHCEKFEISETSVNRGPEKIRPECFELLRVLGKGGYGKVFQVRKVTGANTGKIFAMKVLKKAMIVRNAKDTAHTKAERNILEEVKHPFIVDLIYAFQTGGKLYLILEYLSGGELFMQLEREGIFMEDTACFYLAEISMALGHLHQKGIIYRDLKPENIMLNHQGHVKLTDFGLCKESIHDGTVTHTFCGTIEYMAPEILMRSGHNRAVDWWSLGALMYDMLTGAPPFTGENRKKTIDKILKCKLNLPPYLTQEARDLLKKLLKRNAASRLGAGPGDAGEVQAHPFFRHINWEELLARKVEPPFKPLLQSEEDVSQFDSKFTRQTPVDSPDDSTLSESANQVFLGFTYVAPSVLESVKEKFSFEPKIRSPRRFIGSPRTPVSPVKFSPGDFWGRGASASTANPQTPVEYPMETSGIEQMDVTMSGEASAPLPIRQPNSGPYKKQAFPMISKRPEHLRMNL

AMPKα1 = target: T6, AMPKα1 (Homo sapiens, UniProt Q13131); assay: Kinase profiling at 10 μM (Eurofins); format: biochemical; details: read-out: Inhibitory activity
T6 construct: purchased Eurofins Pharma Discovery (KinaseProfiler); IC50 values by Reaction Biology Corp
T6 sequence (Q13131 whole entry): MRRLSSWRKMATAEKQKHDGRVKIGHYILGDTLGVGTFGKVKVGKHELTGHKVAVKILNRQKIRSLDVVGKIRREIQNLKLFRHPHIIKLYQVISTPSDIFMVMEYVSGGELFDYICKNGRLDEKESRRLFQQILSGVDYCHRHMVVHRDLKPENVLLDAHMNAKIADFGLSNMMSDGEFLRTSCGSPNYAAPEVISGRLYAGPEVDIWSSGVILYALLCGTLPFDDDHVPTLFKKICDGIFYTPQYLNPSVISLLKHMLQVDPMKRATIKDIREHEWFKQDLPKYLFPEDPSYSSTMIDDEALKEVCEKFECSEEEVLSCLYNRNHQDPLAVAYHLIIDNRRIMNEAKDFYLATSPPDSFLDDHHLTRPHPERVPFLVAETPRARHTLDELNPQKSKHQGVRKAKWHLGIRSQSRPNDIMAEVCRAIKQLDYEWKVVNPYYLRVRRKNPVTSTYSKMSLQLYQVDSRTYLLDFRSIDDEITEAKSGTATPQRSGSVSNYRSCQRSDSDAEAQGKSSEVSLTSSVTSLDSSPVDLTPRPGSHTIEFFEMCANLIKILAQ
T6 sequence (Q9Y478 whole entry partner): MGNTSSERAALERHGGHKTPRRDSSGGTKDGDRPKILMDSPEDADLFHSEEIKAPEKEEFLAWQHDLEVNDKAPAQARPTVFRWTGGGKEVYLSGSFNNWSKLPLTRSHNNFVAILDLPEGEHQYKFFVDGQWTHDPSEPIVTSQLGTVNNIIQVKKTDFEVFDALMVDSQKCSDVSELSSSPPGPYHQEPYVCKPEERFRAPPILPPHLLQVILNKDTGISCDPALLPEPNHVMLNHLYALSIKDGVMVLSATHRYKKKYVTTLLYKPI
T6 sequence (P54619 whole entry partner): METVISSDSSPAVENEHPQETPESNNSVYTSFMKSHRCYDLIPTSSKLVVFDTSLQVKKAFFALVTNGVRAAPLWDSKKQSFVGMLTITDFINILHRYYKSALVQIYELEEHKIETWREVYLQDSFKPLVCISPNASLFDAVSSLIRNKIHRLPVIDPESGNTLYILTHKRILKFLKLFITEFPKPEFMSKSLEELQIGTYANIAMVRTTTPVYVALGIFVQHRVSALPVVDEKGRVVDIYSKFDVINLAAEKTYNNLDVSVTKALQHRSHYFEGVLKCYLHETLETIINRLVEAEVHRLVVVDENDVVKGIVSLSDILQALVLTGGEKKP

PDGFRα(D842V) = target: T7, PDGFRα(D842V) (Homo sapiens, UniProt P16234, D842V); assay: Kinase profiling at 10 μM (Eurofins); format: biochemical; details: read-out: Inhibitory activity
T7 construct: purchased Eurofins Pharma Discovery (KinaseProfiler); IC50 values by Reaction Biology Corp
T7 sequence (P16234 24-1089 D842V): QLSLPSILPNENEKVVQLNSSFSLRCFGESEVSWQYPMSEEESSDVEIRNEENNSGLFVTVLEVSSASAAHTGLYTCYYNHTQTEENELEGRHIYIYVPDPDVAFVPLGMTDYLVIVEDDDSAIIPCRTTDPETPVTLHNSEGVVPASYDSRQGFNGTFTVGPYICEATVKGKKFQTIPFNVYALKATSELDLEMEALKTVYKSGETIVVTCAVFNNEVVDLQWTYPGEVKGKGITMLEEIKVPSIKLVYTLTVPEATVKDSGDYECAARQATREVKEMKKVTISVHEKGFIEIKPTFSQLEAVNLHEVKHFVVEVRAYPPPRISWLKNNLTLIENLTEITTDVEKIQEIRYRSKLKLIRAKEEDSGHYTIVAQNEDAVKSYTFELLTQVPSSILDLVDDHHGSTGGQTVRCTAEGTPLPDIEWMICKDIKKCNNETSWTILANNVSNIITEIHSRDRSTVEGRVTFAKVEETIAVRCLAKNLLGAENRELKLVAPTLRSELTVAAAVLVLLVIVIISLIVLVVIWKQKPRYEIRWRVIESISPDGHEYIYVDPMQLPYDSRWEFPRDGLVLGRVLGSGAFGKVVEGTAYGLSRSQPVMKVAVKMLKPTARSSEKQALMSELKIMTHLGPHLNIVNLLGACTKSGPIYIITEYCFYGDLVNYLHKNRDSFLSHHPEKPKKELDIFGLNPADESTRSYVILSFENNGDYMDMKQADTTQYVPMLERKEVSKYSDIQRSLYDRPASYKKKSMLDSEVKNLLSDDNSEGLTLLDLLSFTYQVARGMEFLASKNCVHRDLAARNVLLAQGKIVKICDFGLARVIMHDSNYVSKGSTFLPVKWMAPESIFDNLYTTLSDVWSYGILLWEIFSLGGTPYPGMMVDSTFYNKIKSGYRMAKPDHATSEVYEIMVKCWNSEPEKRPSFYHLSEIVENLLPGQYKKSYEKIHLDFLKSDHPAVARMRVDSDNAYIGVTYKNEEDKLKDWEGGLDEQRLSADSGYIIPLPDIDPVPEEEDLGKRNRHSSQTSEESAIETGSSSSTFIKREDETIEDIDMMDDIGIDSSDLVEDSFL

CHK2 = target: T8, CHK2 (Homo sapiens, UniProt O96017); assay: Kinase profiling at 10 μM (Eurofins); format: biochemical; details: read-out: Inhibitory activity
T8 construct: purchased Eurofins Pharma Discovery (KinaseProfiler); IC50 values by Reaction Biology Corp
T8 sequence (O96017 whole entry): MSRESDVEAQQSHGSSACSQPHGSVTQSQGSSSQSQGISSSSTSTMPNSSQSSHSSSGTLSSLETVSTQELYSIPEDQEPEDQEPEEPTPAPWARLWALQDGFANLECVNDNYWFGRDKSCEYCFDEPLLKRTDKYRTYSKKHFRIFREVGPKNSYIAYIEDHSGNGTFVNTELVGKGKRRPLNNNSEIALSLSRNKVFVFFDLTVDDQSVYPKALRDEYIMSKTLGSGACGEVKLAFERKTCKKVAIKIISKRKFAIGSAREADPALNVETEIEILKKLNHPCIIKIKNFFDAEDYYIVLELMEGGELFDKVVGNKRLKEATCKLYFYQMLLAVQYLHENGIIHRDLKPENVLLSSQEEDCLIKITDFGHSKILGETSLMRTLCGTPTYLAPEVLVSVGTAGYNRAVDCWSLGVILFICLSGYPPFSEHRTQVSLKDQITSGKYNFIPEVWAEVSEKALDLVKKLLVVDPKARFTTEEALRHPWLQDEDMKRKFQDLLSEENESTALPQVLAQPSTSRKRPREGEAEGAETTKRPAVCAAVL

MEK1 = target: T9, MEK1 (Homo sapiens, UniProt Q02750); assay: Kinase profiling at 10 μM (Eurofins); format: biochemical; details: read-out: Inhibitory activity
T9 construct: purchased Eurofins Pharma Discovery (KinaseProfiler); IC50 values by Reaction Biology Corp
T9 sequence (Q02750 whole entry): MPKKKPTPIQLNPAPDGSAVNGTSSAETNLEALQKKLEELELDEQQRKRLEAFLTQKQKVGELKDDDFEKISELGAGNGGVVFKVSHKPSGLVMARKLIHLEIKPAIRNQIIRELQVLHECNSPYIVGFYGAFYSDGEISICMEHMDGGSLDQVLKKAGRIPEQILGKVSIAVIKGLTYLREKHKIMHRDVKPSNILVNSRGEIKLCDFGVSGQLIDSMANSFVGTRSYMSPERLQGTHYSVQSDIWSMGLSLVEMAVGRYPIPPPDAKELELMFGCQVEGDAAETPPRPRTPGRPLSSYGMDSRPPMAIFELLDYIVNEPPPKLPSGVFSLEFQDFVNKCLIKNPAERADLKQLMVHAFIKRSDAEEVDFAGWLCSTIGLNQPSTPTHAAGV

H1299 cells [2] = assay: Immunoblot of phospho-STAT5; format: cell-based, human
Method: Cell lysates were prepared by extracting proteins with TNN buffer (40 mM Tris-Cl pH 8.0, 0.2% NP-40, 120 mM NaCl) or radioimmunoprecipitation assay (RIPA) lysis buffer (Millipore, Billerica MA, USA) supplemented with a protease inhibitor cocktail (Thermo Fisher Scientific, Rockford, IL, USA). Equal amounts of proteins were separated using SDS-PAGE on 8–13% gels, and transferred to nitrocellulose membranes (Bio-Rad, Hercules, CA, USA). The membranes were blocked with 5% skim milk in Tris-buffered saline-Tween 20 (TBST) (150 mM NaCl, 10 mM Tris, 0.2% Tween20), followed by overnight incubation with primary antibodies at 4 °C. The blots were developed using peroxidase-conjugated secondary antibody and the immunoreactive proteins were visualized using enhanced chemiluminescence (ECL) reagents, according to the manufacturer’s recommendations (Amersham, GE Healthcare, Buckingamshire, UK). The protein bands were visualized using a digital imaging system (ImageQuant LAS 4000 mini; GE Healthcare, UK). The protein levels were analyzed using Image J software (National Institutes of Health, Bethesda, MD, USA). Experiments were repeated at least thrice.

CK1γ1 = target: T10, CK1γ1 (Homo sapiens, UniProt Q9HCP0); assay: Kinase profiling at 10 μM (Eurofins); format: biochemical; details: read-out: Inhibitory activity
T10 construct: purchased Eurofins Pharma Discovery (KinaseProfiler); IC50 values by Reaction Biology Corp
T10 sequence (Q9HCP0 whole entry): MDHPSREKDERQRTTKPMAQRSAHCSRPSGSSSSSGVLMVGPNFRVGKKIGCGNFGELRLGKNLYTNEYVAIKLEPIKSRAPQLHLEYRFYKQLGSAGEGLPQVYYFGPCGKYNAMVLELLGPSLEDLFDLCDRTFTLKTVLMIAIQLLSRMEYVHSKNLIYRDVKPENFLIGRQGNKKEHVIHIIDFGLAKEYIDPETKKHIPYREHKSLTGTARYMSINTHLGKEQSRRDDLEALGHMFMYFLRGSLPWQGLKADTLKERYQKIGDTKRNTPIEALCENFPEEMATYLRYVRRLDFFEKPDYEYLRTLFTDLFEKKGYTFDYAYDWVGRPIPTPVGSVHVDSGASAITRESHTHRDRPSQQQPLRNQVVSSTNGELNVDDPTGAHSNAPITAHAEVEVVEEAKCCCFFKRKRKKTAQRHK

ERBB2 = target: T11, ERBB2 (Homo sapiens, UniProt P04626); assay: Kinase profiling at 10 μM (Eurofins); format: biochemical; details: read-out: Inhibitory activity
T11 construct: purchased Eurofins Pharma Discovery (KinaseProfiler); IC50 values by Reaction Biology Corp

inhibition at 10 µM (ZAP-70): 0%
inhibition at 10 µM (SRC (1-530)): 10%
inhibition at 10 µM (TGFBR1): 12%
inhibition at 10 µM (TAK1): 15%
inhibition at 10 µM (p70S6K): 8%
inhibition at 10 µM (AMPKα1): 25%
inhibition at 10 µM (PDGFRα(D842V)): 23%
inhibition at 10 µM (CHK2): 14%
inhibition at 10 µM (MEK1): 0%
inhibition at 10 µM (CK1γ1): 37%
inhibition at 10 µM (ERBB2): 0%
SMILES: Brc1ccc(-c2cnc(Nc3cccc4ccccc34)o2)cc1 [AIU2001, 5-(4-bromophenyl)-N-(naphthalen-1-yl) oxazol-2-amine]
Dose enhancement ratio (DER) at surviving fraction of 0.1 over DMSO-treated cells (H1299 cells [1]; 2 μM, 2 h before IR, 10 days): 1.15
Radiosensitivity (H1299 cells [1]; clonogenic survival): radiosensitized
Dose enhancement ratio (DER) at surviving fraction of 0.1 over DMSO-treated cells (A549 cells; 2 μM, 2 h before IR, 10 days): 1.33
Radiosensitivity (A549 cells; clonogenic survival): radiosensitized
Growth inhibition (CCD18-Lu cells): relatively less
Growth inhibition (H460 cells): significantly inhibited the growth
Growth inhibition (BEAS2B cells): relatively less
Average tumor weight at necropsy (A549 xenografts): 1.2 g
Body weight versus control mice (A549 xenografts): did not differ
Inhibition of tumor growth compared to the vehicle (A549 xenografts): 48.3%
Phosphorylated STAT5 (H1299 cells [2]): inhibited phosphorylated STAT5
